Experimental data reported in patent US20240158390A1, “OTHER HETEROAROMATIC COMPOUNDS HAVING ACTIVITY AGAINST RSV” (Janssen Sciences Ireland Unlimited Company, priority 2019, published 2024).

Experiments:
in vitro = type: cell-based; conditions: human
Procedure: (§1) Black 384-well clear-bottom microtiter plates (Corning, Amsterdam, The Netherlands) were filled via acoustic drop ejection using the echo liquid handler (Labcyte, Sunnyvale, California). 200 nL of compound stock solutions (100% DMSO) were transferred to the assay plates. 9 serial 4-fold dilutions of compound were made, creating per quadrant the same compound concentration. The assay was initiated by adding 10 μL of culture medium to each well (RPMI medium without phenol red, 10% FBS-heat inactivated, 0.04% gentamycin (50 mg/mL). All addition steps are done by using a multidrop dispenser (Thermo Scientific, Erembodegem, Belgium). Next, rgRSV224 virus (MOI=1) diluted in culture medium was added to the plates. rgRSV224 virus is an engineered virus that includes an additional GFP gene (Hallak LK, Spillmann D, Collins PL, Peeples ME. Glycosaminoglycan sulfation requirements for respiratory syncytial virus infection; Journal of virology (2000), 74(22), 10508-13) and was in-licensed from the NIH (Bethesda, MD, USA). Finally, 20 μL of a HeLa cell suspension (3,000 cells/well) were plated. Medium, virus- and mock-infected controls were included in each test. The wells contain 0.05% DMSO per volume. Cells were incubated at 37° C. in a 5% CO2 atmosphere. Three days post-virus exposure, viral replication was quantified by measuring GFP expression in the cells by an in house developed MSM laser microscope (Tibotec, Beerse, Belgium). The EC50 was defined as the 50% inhibitory concentration for GFP expression. In parallel, compounds were incubated for three days in a set of white 384-well microtiter plates (Corning) and the cytotoxicity of compounds in HeLa cells was determined by measuring the ATP content of the cells using the ATPlite kit (Perkin Elmer, Zaventem, Belgium) according to the manufacturer's instructions. The CC50 was defined as the 50% concentration for cytotoxicity.

rgRSV224 virus = assay: Antiviral activity: rgRSV224 (GFP) replication in HeLa cells; type: cell-based; conditions: human respiratory syncytial virus, 72 h, read-out: RSV HELA EC50 (μM)
Procedure: as §1

SMILES | CC50 at 3 days (in vitro) [µM] | EC50 (rgRSV224 virus) [µM]
C[C@@H]1c2ccccc2CCN1C(=O)c1cc(C2CC2)c2cc(-c3ccc(N4CC[C@@H](C(=O)O)C4)cc3F)n(C)c2c1 [Compound 10, (R)-1-(4-(4-cyclopropyl-1-methyl-6-((R)-1-methyl-1,2,3,4-tetrahydroisoquinoline-2-carbonyl)-1H-indol-2-yl)-3-fluorophenyl)pyrrolidine-3-carboxylic acid] | 21.1 | 2.64
C[C@@H]1c2ccccc2CCN1C(=O)c1cc(C2CC2)c2nc(-c3ccc(NC(=O)N4CC[C@@H](O)C4)cc3F)sc2c1 [Compound 24, (R)-N-(4-(4-cyclopropyl-6-((R)-1-methyl-1,2,3,4-tetrahydroisoquinoline-2-carbonyl)benzo[d]thiazol-2-yl)-3-fluorophenyl)-3-hydroxypyrrolidine-1-carboxamide] | 54 | 0.17
C[C@@H]1c2ccccc2CCN1C(=O)c1cc(C2CC2)c2cc(-c3ccc([C@H]4C[C@@H]4C(=O)O)cc3F)n(C)c2c1 [Compound 9, (1 S,2S)-2-(4-(4-cyclopropyl-1-methyl-6-((R)-1-methyl-1,2,3,4-tetrahydroisoquinoline-2-carbonyl)-1H-indol-2-yl)-3-fluorophenyl)cyclopropane-1-carboxylic acid] | 31.4 | 2.31
C[C@@H]1c2ccccc2CCN1C(=O)c1cc(C2CC2)c2nc(-c3ccc(N4C[C@H](O)[C@@H](O)C4)cc3F)oc2n1 [Compound 2, (7-cyclopropyl-2-(4-((3 S,4S)-3,4-dihydroxypyrrolidin-1-yl)-2-fluorophenyl)oxazolo[5,4-b]pyridin-5-yl)((R)-1-methyl-3,4-dihydroisoquinolin-2(1H)-yl)methanone] | 26 | 0.02
C[C@@H]1c2ccccc2CCN1C(=O)c1cc(-c2ccccc2)c2cn(-c3ccc(N4C[C@H](O)[C@@H](O)C4)cc3F)nc2c1 [Compound 25, (2-(4-((3S,4S)-3,4-dihydroxypyrrolidin-1-yl)-2-fluorophenyl)-4-phenyl-2H-indazol-6-yl)((R)-1-methyl-3,4-dihydroisoquinolin-2 (1H)-yl)methanone] | 19.4 | 0.47
C[C@@H]1c2ccccc2CCN1C(=O)c1cc(C2CC2)c2nc(-c3ccc(N4CC[C@H](C(N)=O)C4)cc3F)n(C)c2c1 [Compound 17, (3S)-1-(4-{4-Cyclopropyl-1-methyl-6-[(1R)-1-methyl-1,2,3,4-tetrahydroisoquinoline-2-carbonyl]-1H-1,3-benzodiazol-2-yl}-3-fluorophenyl)pyrrolidine-3-carboxamide] | 39.6 | 0.17
C[C@@H]1c2ccccc2CCN1C(=O)c1cc(C2CC2)c2cc(-c3ccc(N4C[C@H](O)[C@@H](O)C4)cc3F)sc2n1 [Compound 4, (4-cyclopropyl-2-(4-((3 S,4S)-3,4-dihydroxypyrrolidin-1-yl)-2-fluorophenyl)thieno[2,3-b]pyridin-6-yl)((R)-1-methyl-3,4-dihydroisoquinolin-2(1H)-yl)methanone] | 14.3 | 0.14
C[C@@H]1c2ccccc2CCN1C(=O)c1cc(C2CC2)c2nn(-c3ccc(NC(=O)N4CC[C@@H](O)C4)cc3F)cc2n1 [Compound 7, (R)-N-(4-(7-cyclopropyl-5-((R)-1-methyl-1,2,3,4-tetrahydroisoquinoline-2-carbonyl)-2H-pyrazolo[4,3-b]pyridin-2-yl)-3-fluorophenyl)-3-hydroxypyrrolidine-1-carboxamide] | 47.6 | 0.05
C[C@@H]1c2ccccc2CCN1C(=O)c1cc(C2CC2)c2cc(-c3ccc([C@H]4C[C@@H]4C(=O)O)cc3F)[nH]c2c1 [Compound 8, (1 S,2S)-2-(4-(4-cyclopropyl-6-((R)-1-methyl-1,2,3,4-tetrahydroisoquinoline-2-carbonyl)-1H-indol-2-yl)-3-fluorophenyl)cyclopropane-1-carboxylic acid] | 20.9 | 2.04
C[C@@H]1c2ccccc2CCN1C(=O)c1cc(C2CC2)c2nc(-c3ccc(NC(=O)N4CC[C@@H](O)C4)cc3F)oc2c1 [Compound 23, (R)-N-(4-(4-cyclopropyl-6-((R)-1-methyl-1,2,3,4-tetrahydroisoquinoline-2-carbonyl)benzo[d]oxazol-2-yl)-3-fluorophenyl)-3-hydroxypyrrolidine-1-carboxamide] | 47.8 | 0.05
C[C@@H]1c2ccccc2CCN1C(=O)c1cc(C2CC2)c2nc(-c3ccc(N4CC[C@H](C(=O)O)C4)cc3F)n(C)c2n1 [Compound 12, Methyl (3S)-1-(4-{7-cyclopropyl-3-methyl-5-[(1R)-1-methyl-1,2,3,4-tetrahydroisoquinoline-2-carbonyl]-3H-imidazo[4,5-b]pyridin-2-yl}-3-fluorophenyl)pyrrolidine-3-carboxylic acid] | 63 | 0.43
CCc1cc(C(=O)N2CCc3ccccc3[C@H]2C)nc2cc(-c3ccc(NC(=O)N4CC[C@@H](O)C4)cc3F)oc12 [Compound 6, (R)-N-(4-(7-ethyl-5-((R)-1-methyl-1,2,3,4-tetrahydroisoquinoline-2-carbonyl)furo[3,2-b]pyridin-2-yl)-3-fluorophenyl)-3-hydroxypyrrolidine-1-carboxamide] | > 100 | 0.07
CCc1cc(C(=O)N2CCc3ccccc3[C@H]2C)cc2cc(-c3ccc(N4C[C@H](O)[C@@H](O)C4)cc3F)oc12 [Compound 3, (2-(4-((3S,4S)-3,4-dihydroxypyrrolidin-1-yl)-2-fluorophenyl)-7-ethylbenzofuran-5-yl)((R)-1-methyl-3,4-dihydroisoquinolin-2 (1H)-yl)methanone] | 24.2 | 0.25
CCc1cc(C(=O)N2CCc3ccccc3[C@H]2C)nc2oc(-c3ccc(NC(=O)N4CC[C@@H](O)C4)cc3F)nc12 [Compound 1, (R)-N-(4-(7-ethyl-5-((R)-1-methyl-1,2,3,4-tetrahydroisoquinoline-2-carbonyl)oxazolo[5,4-b]pyridin-2-yl)-3-fluorophenyl)-3-hydroxypyrrolidine-1-carboxamide] | > 25 | 0.01
C[C@@H]1c2ccccc2CCN1C(=O)c1cc(C2CC2)c2nc(-c3ccc(N4CC[C@H](C(=O)O)C4)cc3F)oc2c1 [Compound 21, (3S)-1-(4-{4-Cyclopropyl-6-[(1R)-1-methyl-1,2,3,4-tetrahydroisoquinoline-2-carbonyl]-1,3-benzoxazol-2-yl}-3-fluorophenyl)pyrrolidine-3-carboxylic acid] | 51.5 | 0.01
C[C@@H]1c2ccccc2CCN1C(=O)c1cc(C2CC2)c2nc(-c3ccc(C4C[C@@H]4C(=O)O)cc3F)n(C)c2c1 (relative stereo) [Compound 14, Cis-2-(4-{4-cyclopropyl-1-methyl-6-[(1R)-1-methyl-1,2,3,4-tetrahydroisoquinoline-2-carbonyl]-1H-1,3-benzodiazol-2-yl}-3-fluorophenyl)cyclopropane-1-carboxylic acid] | > 100 | 9.05
C[C@@H]1c2ccccc2CCN1C(=O)c1cc(C2CC2)c2c(n1)nc(-c1ccc(C3C[C@H]3C(=O)O)cc1F)n2C (relative stereo) [Compound 13, (Trans)-2-(4-(7-cyclopropyl-1-methyl-5-((R)-1-methyl-1,2,3,4-tetrahydroisoquinoline-2-carbonyl)-1H-imidazo[4,5-b]pyridin-2-yl)-3-fluorophenyl)cyclopropane-1-carboxylic acid] | > 100 | 22.4
C[C@@H]1c2ccccc2CCN1C(=O)c1cc(C2CC2)c2nn(-c3ccc(N)cc3F)cc2c1 [Compound 19, 4-{7-Cyclopropyl-5-[(1R)-1-methyl-1,2,3,4-tetrahydroisoquinoline-2-carbonyl]-2H-indazol-2-yl}-3-fluoroaniline] | 55.2 | 0.16
C[C@@H]1c2ccccc2CCN1C(=O)c1cc(C2CC2)c2nc(-c3ccc(NC(=O)N4CC[C@@H](O)C4)cc3F)n(C)c2c1 [Compound 18, (3R)-N-(4-{4-Cyclopropyl-1-methyl-6-[(1R)-1-methyl-1,2,3,4-tetrahydroisoquinoline-2-carbonyl]-1H-1,3-benzodiazol-2-yl}-3-fluorophenyl)-3-hydroxypyrrolidine-1-carboxamide] | 51.6 | 0.14
C[C@@H]1c2ccccc2CCN1C(=O)c1cc(C2CC2)c2nc(-c3ccc(C4C[C@@H]4C(N)=O)cc3F)n(C)c2c1 (relative stereo) [Compound 15, Cis-2-(4-{4-cyclopropyl-1-methyl-6-[(1R)-1-methyl-1,2,3,4-tetrahydroisoquinoline-2-carbonyl]-1H-1,3-benzodiazol-2-yl}-3-fluorophenyl)cyclopropane-1-carboxamide] | 50.4 | 0.69
